Data: PubChem BioAssay (NCI)
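The compound was tested at five concentrations on cells cultured in 96-well plates, with a 48-hour exposure period. Definition used: TGI = concentration required for complete inhibition of growth.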

What was measured:
Experiment in all cases: NCI tumour cell line growth inhibition, 48 h
SK-OV-3 ovarian = system: SK-OV-3 ovarian
CCRF-CEM leukemia = system: CCRF-CEM leukemia
OVCAR-8 ovarian = system: OVCAR-8 ovarian
IGROV1 ovarian = system: IGROV1 ovarian
A549 NSCLC = system: A549 NSCLC
RPMI-8226 leukemia = system: RPMI-8226 leukemia
PC-3 prostate = system: PC-3 prostate
MOLT-4 leukemia = system: MOLT-4 leukemia
HOP-62 NSCLC = system: HOP-62 NSCLC
A498 renal = system: A498 renal
UO-31 renal = system: UO-31 renal
HOP-92 NSCLC = system: HOP-92 NSCLC
DU-145 prostate = system: DU-145 prostate
SK-MEL-28 melanoma = system: SK-MEL-28 melanoma
SR leukemia = system: SR leukemia
NCI-H522 lung = system: NCI-H522 lung
SN12C renal = system: SN12C renal
NCI-H226 lung = system: NCI-H226 lung
LOX IMVI melanoma = system: LOX IMVI melanoma
SF-268 CNS = system: SF-268 CNS
NCI/ADR-RES ovarian = system: NCI/ADR-RES ovarian
MDA-MB-231 breast = system: MDA-MB-231 breast
MDA-N = system: MDA-N
HCT-15 colon = system: HCT-15 colon
MCF7 breast = system: MCF7 breast
T-47D breast = system: T-47D breast
UACC-257 melanoma = system: UACC-257 melanoma
K-562 leukemia = system: K-562 leukemia
TK-10 renal = system: TK-10 renal
HCC-2998 colon = system: HCC-2998 colon
OVCAR-3 ovarian = system: OVCAR-3 ovarian
NCI-H23 lung = system: NCI-H23 lung
HCT-116 colon = system: HCT-116 colon
U251 CNS = system: U251 CNS
BT-549 breast = system: BT-549 breast
SNB-19 CNS = system: SNB-19 CNS
RXF 393 renal = system: RXF 393 renal
EKVX NSCLC = system: EKVX NSCLC
OVCAR-5 ovarian = system: OVCAR-5 ovarian
M14 melanoma = system: M14 melanoma
OVCAR-4 ovarian = system: OVCAR-4 ovarian
ACHN renal = system: ACHN renal
CAKI-1 renal = system: CAKI-1 renal
SK-MEL-5 melanoma = system: SK-MEL-5 melanoma
HT29 colon = system: HT29 colon
COLO 205 colon = system: COLO 205 colon
MDA-MB-435 = system: MDA-MB-435
SF-295 CNS = system: SF-295 CNS
NCI-H460 lung = system: NCI-H460 lung
SNB-75 CNS = system: SNB-75 CNS
SW-620 colon = system: SW-620 colon
UACC-62 melanoma = system: UACC-62 melanoma
786-0 renal = system: 786-0 renal
MALME-3M melanoma = system: MALME-3M melanoma
KM12 colon = system: KM12 colon
HS 578T breast = system: HS 578T breast
SK-MEL-2 melanoma = system: SK-MEL-2 melanoma
SF-539 CNS = system: SF-539 CNS

Work on O=C1c2ccccc2C(=O)N1CCCCNOCCCN1C(=O)c2ccccc2C1=O yielded a TGI (SK-OV-3 ovarian) greater than 100 µM, a TGI (CCRF-CEM leukemia) greater than 100 µM and a TGI (OVCAR-8 ovarian) greater than 100 µM. For the same compound, the TGI (IGROV1 ovarian) was greater than 100 µM, the TGI (A549 NSCLC) was greater than 100 µM and the TGI (RPMI-8226 leukemia) was greater than 100 µM. The TGI (PC-3 prostate) was greater than 100 µM, the TGI (MOLT-4 leukemia) was greater than 100 µM and the TGI (HOP-62 NSCLC) was greater than 100 µM. It also gave a TGI (A498 renal) greater than 100 µM, a TGI (UO-31 renal) greater than 100 µM and a TGI (HOP-92 NSCLC) greater than 100 µM. The TGI (DU-145 prostate) was greater than 100 µM, the TGI (SK-MEL-28 melanoma) was greater than 100 µM and the TGI (SR leukemia) was greater than 100 µM. It also gave a TGI (NCI-H522 lung) greater than 100 µM, a TGI (SN12C renal) greater than 100 µM and a TGI (NCI-H226 lung) greater than 100 µM. The TGI (LOX IMVI melanoma) was greater than 100 µM, the TGI (SF-268 CNS) was greater than 100 µM and the TGI (NCI/ADR-RES ovarian) was greater than 100 µM. It also gave a TGI (MDA-MB-231 breast) greater than 100 µM, a TGI (MDA-N) greater than 100 µM and a TGI (HCT-15 colon) greater than 100 µM. It also gave a TGI (MCF7 breast) greater than 100 µM, a TGI (T-47D breast) greater than 100 µM and a TGI (UACC-257 melanoma) greater than 100 µM. It also gave a TGI (K-562 leukemia) greater than 100 µM, a TGI (TK-10 renal) greater than 100 µM and a TGI (HCC-2998 colon) greater than 100 µM. It also gave a TGI (OVCAR-3 ovarian) greater than 100 µM, a TGI (NCI-H23 lung) greater than 100 µM and a TGI (HCT-116 colon) greater than 100 µM. For the same compound, the TGI (U251 CNS) was greater than 100 µM, the TGI (BT-549 breast) was greater than 100 µM and the TGI (SNB-19 CNS) was greater than 100 µM. The TGI (RXF 393 renal) was greater than 100 µM, the TGI (EKVX NSCLC) was greater than 100 µM and the TGI (OVCAR-5 ovarian) was greater than 100 µM. The TGI (M14 melanoma) was greater than 100 µM, the TGI (OVCAR-4 ovarian) was greater than 100 µM and the TGI (ACHN renal) was greater than 100 µM. For the same compound, the TGI (CAKI-1 renal) was greater than 100 µM, the TGI (SK-MEL-5 melanoma) was greater than 100 µM and the TGI (HT29 colon) was greater than 100 µM. For the same compound, the TGI (COLO 205 colon) was greater than 100 µM, the TGI (MDA-MB-435) was greater than 100 µM and the TGI (SF-295 CNS) was greater than 100 µM. For the same compound, the TGI (NCI-H460 lung) was greater than 100 µM, the TGI (SNB-75 CNS) was greater than 100 µM and the TGI (SW-620 colon) was greater than 100 µM. The TGI (UACC-62 melanoma) was greater than 100 µM, the TGI (786-0 renal) was greater than 100 µM and the TGI (MALME-3M melanoma) was greater than 100 µM. It also gave a TGI (KM12 colon) greater than 100 µM and a TGI (HS 578T breast) greater than 100 µM.
CCC(=O)Oc1ccc2c(c1)c(=O)c1c(NCCCN(C)C)ccc3nnn2c31 gave a TGI (SK-OV-3 ovarian) of 18.9 µM, a TGI (CCRF-CEM leukemia) of 2.01 µM and a TGI (OVCAR-8 ovarian) of 15.1 µM. The TGI (IGROV1 ovarian) was 13.9 µM, the TGI (A549 NSCLC) was 13.4 µM and the TGI (RPMI-8226 leukemia) was 7.16 µM. For the same compound, the TGI (PC-3 prostate) was 16.1 µM, the TGI (MOLT-4 leukemia) was 5.69 µM and the TGI (HOP-62 NSCLC) was 16.6 µM. The TGI (A498 renal) was 18.3 µM, the TGI (UO-31 renal) was 5.3 µM and the TGI (HOP-92 NSCLC) was 21.3 µM. The TGI (DU-145 prostate) was 16.7 µM, the TGI (SK-MEL-28 melanoma) was 23.9 µM and the TGI (SR leukemia) was 6.01 µM. It also gave a TGI (NCI-H522 lung) of 9.06 µM, a TGI (SN12C renal) of 15.3 µM and a TGI (NCI-H226 lung) of 11.8 µM. For the same compound, the TGI (LOX IMVI melanoma) was 2.88 µM, the TGI (SF-268 CNS) was 17.2 µM and the TGI (NCI/ADR-RES ovarian) was 18.5 µM. For the same compound, the TGI (MDA-MB-231 breast) was 19.1 µM, the TGI (MDA-N) was 18.4 µM and the TGI (HCT-15 colon) was 15.9 µM. For the same compound, the TGI (SK-MEL-2 melanoma) was 26.4 µM, the TGI (MCF7 breast) was 12.7 µM and the TGI (T-47D breast) was 31 µM. The TGI (UACC-257 melanoma) was 23.4 µM, the TGI (SF-539 CNS) was 13.9 µM and the TGI (K-562 leukemia) was greater than 100 µM. It also gave a TGI (TK-10 renal) of 15.5 µM, a TGI (HCC-2998 colon) of 15 µM and a TGI (OVCAR-3 ovarian) of 21 µM. For the same compound, the TGI (NCI-H23 lung) was 20.3 µM, the TGI (HCT-116 colon) was 14.4 µM and the TGI (U251 CNS) was 17 µM. For the same compound, the TGI (BT-549 breast) was 24.7 µM, the TGI (SNB-19 CNS) was 17.3 µM and the TGI (RXF 393 renal) was 15.5 µM. For the same compound, the TGI (EKVX NSCLC) was 16.6 µM, the TGI (OVCAR-5 ovarian) was 22.6 µM and the TGI (M14 melanoma) was 20.1 µM. For the same compound, the TGI (OVCAR-4 ovarian) was 3.31 µM, the TGI (ACHN renal) was 12.7 µM and the TGI (CAKI-1 renal) was 14.3 µM. For the same compound, the TGI (SK-MEL-5 melanoma) was 10.3 µM, the TGI (HT29 colon) was 11.6 µM and the TGI (COLO 205 colon) was 13.7 µM. For the same compound, the TGI (MDA-MB-435) was 18.7 µM, the TGI (SF-295 CNS) was 17.3 µM and the TGI (NCI-H460 lung) was 9.23 µM. The TGI (SW-620 colon) was 13.5 µM, the TGI (UACC-62 melanoma) was 23.5 µM and the TGI (786-0 renal) was 7.06 µM. It also gave a TGI (MALME-3M melanoma) of 17 µM, a TGI (KM12 colon) of 18.3 µM and a TGI (HS 578T breast) of 21.6 µM.
